Experimental data taken from ChEMBL document CHEMBL4837183, “Antiproliferative Bufadienolides from the Bulbs of Drimia altissima” (2021).

Tests used:
Assay type in all cases: functional
[1] = tested on: HL-60; assay: Growth inhibition of human HL-60 cells measured after 48 hrs by SRB assay
[2] = tested on: SF-539; assay: Growth inhibition of human SF-539 cells measured after 48 hrs by SRB assay
[3] = tested on: TK-10; assay: Growth inhibition of human TK-10 cells measured after 48 hrs by SRB assay
[4] = tested on: IGROV-1; assay: Growth inhibition of human IGROV-1 cells measured after 48 hrs by SRB assay
[5] = tested on: NCI-H460; assay: Growth inhibition of human NCI-H460 cells measured after 48 hrs by SRB assay
[6] = tested on: UACC-257; assay: Growth inhibition of human UACC-257 cells measured after 48 hrs by SRB assay
[7] = tested on: SNB-75; assay: Growth inhibition of human SNB-75 cells measured after 48 hrs by SRB assay
[8] = tested on: NCI-H23; assay: Growth inhibition of human NCI-H23 cells measured after 48 hrs by SRB assay
[9] = tested on: SK-OV-3; assay: Growth inhibition of human SK-OV-3 cells measured after 48 hrs by SRB assay
[10] = tested on: PC-3; assay: Growth inhibition of human PC-3 cells measured after 48 hrs by SRB assay
[11] = tested on: MDA-MB-468; assay: Growth inhibition of human MDA-MB-468 cells measured after 48 hrs by SRB assay
[12] = tested on: NCI/ADR-RES; assay: Growth inhibition of human NCI/ADR-RES cells measured after 48 hrs by SRB assay
[13] = tested on: BT-549; assay: Growth inhibition of human BT-549 cells measured after 48 hrs by SRB assay
[14] = tested on: MCF7; assay: Growth inhibition of human MCF7 cells measured after 48 hrs by SRB assay
[15] = tested on: A498; assay: Growth inhibition of human A498 cells measured after 48 hrs by SRB assay
[16] = tested on: RXF 393; assay: Growth inhibition of human RXF 393 cells measured after 48 hrs by SRB assay
[17] = tested on: MDA-MB-231; assay: Growth inhibition of human MDA-MB-231 cells measured after 48 hrs by SRB assay
[18] = tested on: HCT-15; assay: Growth inhibition of human HCT-15 cells measured after 48 hrs by SRB assay
[19] = tested on: OVCAR-3; assay: Growth inhibition of human OVCAR-3 cells measured after 48 hrs by SRB assay
[20] = tested on: MDA-MB-435; assay: Growth inhibition of human MDA-MB-435 cells measured after 48 hrs by SRB assay
[21] = tested on: COLO 205; assay: Growth inhibition of human COLO 205 cells measured after 48 hrs by SRB assay
[22] = tested on: HCT-116; assay: Growth inhibition of human HCT-116 cells measured after 48 hrs by SRB assay
[23] = tested on: RPMI-8226; assay: Growth inhibition of human RPMI-8226 cells measured after 48 hrs by SRB assay
[24] = tested on: HOP-92; assay: Growth inhibition of human HOP-92 cells measured after 48 hrs by SRB assay
[25] = tested on: NCI-H322M; assay: Growth inhibition of human NCI-H322M cells measured after 48 hrs by SRB assay
[26] = tested on: SF-268; assay: Growth inhibition of human SF-268 cells measured after 48 hrs by SRB assay
[27] = tested on: A549; assay: Growth inhibition of human A549 cells measured after 48 hrs by SRB assay
[28] = tested on: SK-MEL-5; assay: Growth inhibition of human SK-MEL-5 cells measured after 48 hrs by SRB assay
[29] = tested on: DU-145; assay: Growth inhibition of human DU-145 cells measured after 48 hrs by SRB assay
[30] = tested on: NCI-H522; assay: Growth inhibition of human NCI-H522 cells measured after 48 hrs by SRB assay
[31] = tested on: SN12C; assay: Growth inhibition of human SN12C cells measured after 48 hrs by SRB assay
[32] = tested on: HOP-62; assay: Growth inhibition of human HOP-62 cells measured after 48 hrs by SRB assay
[33] = tested on: OVCAR-5; assay: Growth inhibition of human OVCAR-5 cells measured after 48 hrs by SRB assay
[34] = tested on: SF-295; assay: Growth inhibition of human SF-295 cells measured after 48 hrs by SRB assay
[35] = tested on: SR; assay: Growth inhibition of human SR cells measured after 48 hrs by SRB assay
[36] = tested on: Hs-578T; assay: Growth inhibition of human Hs-578T cells measured after 48 hrs by SRB assay
[37] = tested on: LOX IMVI; assay: Growth inhibition of human LOX IMVI cells measured after 48 hrs by SRB assay
[38] = tested on: SK-MEL-28; assay: Growth inhibition of human SK-MEL-28 cells measured after 48 hrs by SRB assay
[39] = tested on: SW-620; assay: Growth inhibition of human SW-620 cells measured after 48 hrs by SRB assay
[40] = tested on: CCRF-CEM; assay: Growth inhibition of human CCRF-CEM cells measured after 48 hrs by SRB assay
[41] = tested on: 786-0; assay: Growth inhibition of human 786-0 cells measured after 48 hrs by SRB assay
[42] = tested on: UACC-62; assay: Growth inhibition of human UACC-62 cells measured after 48 hrs by SRB assay
[43] = tested on: SK-MEL-2; assay: Growth inhibition of human SK-MEL-2 cells measured after 48 hrs by SRB assay
[44] = tested on: SNB-19; assay: Growth inhibition of human SNB-19 cells measured after 48 hrs by SRB assay
[45] = tested on: CAKI-1; assay: Growth inhibition of human CAKI-1 cells measured after 48 hrs by SRB assay
[46] = tested on: M14; assay: Growth inhibition of human M14 cells measured after 48 hrs by SRB assay
[47] = tested on: OVCAR-8; assay: Growth inhibition of human OVCAR-8 cells measured after 48 hrs by SRB assay
[48] = tested on: K562; assay: Growth inhibition of human K562 cells measured after 48 hrs by SRB assay
[49] = tested on: KM12; assay: Growth inhibition of human KM12 cells measured after 48 hrs by SRB assay
[50] = tested on: ACHN; assay: Growth inhibition of human ACHN cells measured after 48 hrs by SRB assay
[51] = tested on: HCC 2998; assay: Growth inhibition of human HCC 2998 cells measured after 48 hrs by SRB assay
[52] = tested on: MOLT-4; assay: Growth inhibition of human MOLT-4 cells measured after 48 hrs by SRB assay
[53] = tested on: NCI-H226; assay: Growth inhibition of human NCI-H226 cells measured after 48 hrs by SRB assay
[54] = tested on: T47D; assay: Growth inhibition of human T47D cells measured after 48 hrs by SRB assay
[55] = tested on: UO-31; assay: Growth inhibition of human UO-31 cells measured after 48 hrs by SRB assay
[56] = tested on: Malme-3M; assay: Growth inhibition of human Malme-3M cells measured after 48 hrs by SRB assay

CCO[C@H]1C=C2CC[C@@H]3[C@H]([C@@H](O)C[C@]4(C)[C@@H](c5ccc(=O)oc5)CC[C@]34O)[C@@]2(C)CC1
GI50 [1]: 0.649 µM
GI50 [2]: 0.968 µM
GI50 [3]: 1.3 µM
GI50 [4]: 1.84 µM
GI50 [5]: 0.247 µM
GI50 [6]: 1.89 µM
GI50 [7]: 1.06 µM
GI50 [8]: 1.36 µM
GI50 [9]: 1.91 µM
GI50 [10]: 0.839 µM
GI50 [11]: > 0.55 µM
GI50 [12]: 1.61 µM
GI50 [13]: 0.946 µM
GI50 [14]: 1.52 µM
GI50 [15]: 0.46 µM
GI50 [16]: 0.709 µM
GI50 [17]: > 5.75 µM
GI50 [18]: 1.8 µM
GI50 [19]: 0.618 µM
GI50 [20]: 1.4 µM
GI50 [21]: 4.22 µM
GI50 [22]: 0.716 µM
GI50 [23]: 1.45 µM
GI50 [24]: 0.757 µM
GI50 [25]: 1.4 µM
GI50 [26]: 0.471 µM
GI50 [27]: 0.434 µM
GI50 [28]: 1.36 µM
GI50 [29]: 0.423 µM
GI50 [30]: 0.252 µM
GI50 [31]: 0.905 µM
GI50 [32]: 0.974 µM
GI50 [33]: 2.03 µM
GI50 [34]: 1.2 µM
GI50 [35]: 0.418 µM
GI50 [36]: 0.369 µM
GI50 [37]: 1.8 µM
GI50 [38]: 1.66 µM
GI50 [39]: 0.911 µM
GI50 [40]: 0.233 µM
GI50 [41]: 0.927 µM
GI50 [42]: 1.27 µM
GI50 [43]: 1.2 µM
GI50 [44]: 2.35 µM
GI50 [45]: 1.15 µM
GI50 [46]: 1.93 µM
GI50 [47]: 1.67 µM
GI50 [48]: 1.27 µM
GI50 [49]: 2.2 µM
GI50 [50]: 0.251 µM
GI50 [51]: 4.51 µM
GI50 [52]: 0.189 µM
GI50 [53]: 1.77 µM
GI50 [54]: 2.17 µM
GI50 [55]: 0.94 µM
GI50 [56]: 1.8 µM
